#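 48-hour exposure; five concentrations; linearly interpolated endpoints. At the TGI there is no net growth.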
# Key:
# Test in all cases: NCI tumour cell line growth inhibition, 48 h
# [1] = system: A549 NSCLC
# [2] = system: BT-549 breast
# [3] = system: CAKI-1 renal
# [4] = system: CCRF-CEM leukemia
# [5] = system: COLO 205 colon
# [6] = system: DU-145 prostate
# [7] = system: EKVX NSCLC
# [8] = system: HCC-2998 colon
# [9] = system: HCT-116 colon
# [10] = system: HCT-15 colon
# [11] = system: HOP-62 NSCLC
# [12] = system: HS 578T breast
# [13] = system: HT29 colon
# [14] = system: IGROV1 ovarian
# [15] = system: K-562 leukemia
# [16] = system: KM12 colon
# [17] = system: LOX IMVI melanoma
# [18] = system: M14 melanoma
# [19] = system: MALME-3M melanoma
# [20] = system: MCF7 breast
# [21] = system: MDA-MB-231 breast
# [22] = system: MDA-MB-435
# [23] = system: MDA-N
# [24] = system: NCI-H226 lung
# [25] = system: NCI-H23 lung
# [26] = system: NCI-H522 lung
# [27] = system: NCI/ADR-RES ovarian
# [28] = system: OVCAR-3 ovarian
# [29] = system: OVCAR-4 ovarian
# [30] = system: OVCAR-5 ovarian
# [31] = system: OVCAR-8 ovarian
# [32] = system: PC-3 prostate
# [33] = system: RPMI-8226 leukemia
# [34] = system: RXF 393 renal
# [35] = system: SF-268 CNS
# [36] = system: SF-295 CNS
# [37] = system: SF-539 CNS
# [38] = system: SK-MEL-2 melanoma
# [39] = system: SK-MEL-28 melanoma
# [40] = system: SK-OV-3 ovarian
# [41] = system: SN12C renal
# [42] = system: SNB-19 CNS
# [43] = system: SNB-75 CNS
# [44] = system: SW-620 colon
# [45] = system: T-47D breast
# [46] = system: TK-10 renal
# [47] = system: U251 CNS
# [48] = system: UACC-62 melanoma
# [49] = system: UO-31 renal
# [50] = system: 786-0 renal
# [51] = system: A498 renal
# [52] = system: ACHN renal
# [53] = system: MOLT-4 leukemia
# [54] = system: NCI-H460 lung
# [55] = system: SK-MEL-5 melanoma
# [56] = system: UACC-257 melanoma
# [57] = system: HL-60(TB) leukemia
# [58] = system: HOP-92 NSCLC
# [59] = system: SR leukemia
compound,measurement,setting,value
Cc1ccc(C2C(C(=O)C(C)(C)C)N2S(=O)(=O)c2ccc(C)cc2)cc1 (stereo not given),TGI,[1],> 100 µM
same,TGI,[2],37.5 µM
same,TGI,[3],59.1 µM
same,TGI,[4],78.1 µM
same,TGI,[5],34.6 µM
same,TGI,[6],38.6 µM
same,TGI,[7],37 µM
same,TGI,[8],33.6 µM
same,TGI,[9],35.4 µM
same,TGI,[10],47.5 µM
same,TGI,[11],94.6 µM
same,TGI,[12],82.5 µM
same,TGI,[13],65.2 µM
same,TGI,[14],46.5 µM
same,TGI,[15],65.3 µM
same,TGI,[16],> 100 µM
same,TGI,[17],53.6 µM
same,TGI,[18],35.6 µM
same,TGI,[19],49.1 µM
same,TGI,[20],62.3 µM
same,TGI,[21],39.8 µM
same,TGI,[22],45.8 µM
same,TGI,[23],34.8 µM
same,TGI,[24],55.1 µM
same,TGI,[25],48.5 µM
same,TGI,[26],36.1 µM
same,TGI,[27],75.9 µM
same,TGI,[28],62 µM
same,TGI,[29],96.2 µM
same,TGI,[30],49.3 µM
same,TGI,[31],51.9 µM
same,TGI,[32],> 100 µM
same,TGI,[33],64.2 µM
same,TGI,[34],46.1 µM
same,TGI,[35],94.6 µM
same,TGI,[36],> 100 µM
same,TGI,[37],28.9 µM
same,TGI,[38],> 100 µM
same,TGI,[39],75.3 µM
same,TGI,[40],> 100 µM
same,TGI,[41],40.6 µM
same,TGI,[42],57.5 µM
same,TGI,[43],69.6 µM
same,TGI,[44],74.7 µM
same,TGI,[45],52 µM
same,TGI,[46],97.2 µM
same,TGI,[47],42 µM
same,TGI,[48],30.7 µM
same,TGI,[49],32.6 µM
NNC(=O)c1n[nH]n(N)c1=S,TGI,[50],> 100 µM
same,TGI,[51],> 100 µM
same,TGI,[1],> 100 µM
same,TGI,[52],> 100 µM
same,TGI,[2],> 100 µM
same,TGI,[3],> 100 µM
same,TGI,[4],> 100 µM
same,TGI,[5],> 100 µM
same,TGI,[6],> 100 µM
same,TGI,[7],> 100 µM
same,TGI,[8],> 100 µM
same,TGI,[9],> 100 µM
same,TGI,[10],> 100 µM
same,TGI,[11],> 100 µM
same,TGI,[12],> 100 µM
same,TGI,[13],> 100 µM
same,TGI,[14],> 100 µM
same,TGI,[15],> 100 µM
same,TGI,[16],> 100 µM
same,TGI,[17],> 100 µM
same,TGI,[18],> 100 µM
same,TGI,[19],> 100 µM
same,TGI,[21],> 100 µM
same,TGI,[22],> 100 µM
same,TGI,[23],> 100 µM
same,TGI,[53],> 100 µM
same,TGI,[24],> 100 µM
same,TGI,[25],> 100 µM
same,TGI,[54],> 100 µM
same,TGI,[26],> 100 µM
same,TGI,[27],> 100 µM
same,TGI,[28],> 100 µM
same,TGI,[29],> 100 µM
same,TGI,[30],> 100 µM
same,TGI,[31],> 100 µM
same,TGI,[32],> 100 µM
same,TGI,[33],> 100 µM
same,TGI,[34],> 100 µM
same,TGI,[35],> 100 µM
same,TGI,[36],> 100 µM
same,TGI,[37],> 100 µM
same,TGI,[38],> 100 µM
same,TGI,[39],> 100 µM
same,TGI,[55],> 100 µM
same,TGI,[40],> 100 µM
same,TGI,[41],> 100 µM
same,TGI,[43],> 100 µM
same,TGI,[44],> 100 µM
same,TGI,[45],> 100 µM
same,TGI,[46],> 100 µM
same,TGI,[47],> 100 µM
same,TGI,[56],> 100 µM
same,TGI,[48],> 100 µM
same,TGI,[49],> 100 µM
C[C@H](NC1=CC(=O)C(N[C@@H](C)[C@H](O)c2ccccc2)=CC1=O)[C@H](O)c1ccccc1,TGI,[50],> 100 µM
same,TGI,[51],> 100 µM
same,TGI,[1],> 100 µM
same,TGI,[52],> 100 µM
same,TGI,[2],> 100 µM
same,TGI,[3],> 100 µM
same,TGI,[4],> 100 µM
same,TGI,[5],> 100 µM
same,TGI,[6],> 100 µM
same,TGI,[7],> 100 µM
same,TGI,[9],> 100 µM
same,TGI,[10],> 100 µM
same,TGI,[57],> 100 µM
same,TGI,[11],> 100 µM
same,TGI,[58],> 100 µM
same,TGI,[12],> 100 µM
same,TGI,[13],63.7 µM
same,TGI,[14],> 100 µM
same,TGI,[15],> 100 µM
same,TGI,[16],> 100 µM
same,TGI,[17],> 100 µM
same,TGI,[18],> 100 µM
same,TGI,[19],> 100 µM
same,TGI,[21],> 100 µM
same,TGI,[22],> 100 µM
same,TGI,[23],> 100 µM
same,TGI,[53],> 100 µM
same,TGI,[24],> 100 µM
same,TGI,[25],> 100 µM
same,TGI,[54],> 100 µM
same,TGI,[26],> 100 µM
same,TGI,[27],> 100 µM
same,TGI,[28],> 100 µM
same,TGI,[29],> 100 µM
same,TGI,[30],> 100 µM
same,TGI,[31],> 100 µM
same,TGI,[32],> 100 µM
same,TGI,[33],> 100 µM
same,TGI,[34],> 100 µM
same,TGI,[35],> 100 µM
same,TGI,[36],> 100 µM
same,TGI,[37],> 100 µM
same,TGI,[38],> 100 µM
same,TGI,[39],> 100 µM
same,TGI,[55],> 100 µM
same,TGI,[40],> 100 µM
same,TGI,[41],> 100 µM
same,TGI,[42],> 100 µM
same,TGI,[59],> 100 µM
same,TGI,[44],> 100 µM
same,TGI,[45],> 100 µM
same,TGI,[46],> 100 µM
same,TGI,[47],> 100 µM
same,TGI,[56],> 100 µM
same,TGI,[48],> 100 µM
same,TGI,[49],> 100 µM
Cc1cc(S(=O)(=O)O)ccc1N=Nc1c(O)ccc2ccccc12,TGI,[50],> 100 µM
same,TGI,[1],> 100 µM
same,TGI,[52],> 100 µM
same,TGI,[2],> 100 µM
same,TGI,[3],> 100 µM
same,TGI,[4],> 100 µM
same,TGI,[5],> 100 µM
same,TGI,[6],> 100 µM
same,TGI,[7],> 100 µM
same,TGI,[9],> 100 µM
same,TGI,[10],> 100 µM
same,TGI,[57],> 100 µM
same,TGI,[11],> 100 µM
same,TGI,[58],> 100 µM
same,TGI,[12],> 100 µM
same,TGI,[13],> 100 µM
same,TGI,[14],> 100 µM
same,TGI,[15],> 100 µM
same,TGI,[16],> 100 µM
same,TGI,[18],> 100 µM
same,TGI,[19],> 100 µM
same,TGI,[21],> 100 µM
same,TGI,[22],> 100 µM
same,TGI,[23],> 100 µM
same,TGI,[53],> 100 µM
same,TGI,[24],> 100 µM
same,TGI,[25],> 100 µM
same,TGI,[26],> 100 µM
same,TGI,[27],> 100 µM
same,TGI,[28],> 100 µM
same,TGI,[29],> 100 µM
same,TGI,[30],> 100 µM
same,TGI,[31],> 100 µM
same,TGI,[32],> 100 µM
same,TGI,[33],> 100 µM
same,TGI,[34],> 100 µM
same,TGI,[35],> 100 µM
same,TGI,[36],> 100 µM
same,TGI,[38],> 100 µM
same,TGI,[39],> 100 µM
same,TGI,[55],> 100 µM
same,TGI,[40],> 100 µM
same,TGI,[41],> 100 µM
same,TGI,[42],> 100 µM
same,TGI,[43],> 100 µM
same,TGI,[44],> 100 µM
same,TGI,[45],> 100 µM
same,TGI,[46],> 100 µM
same,TGI,[47],> 100 µM
same,TGI,[56],> 100 µM
same,TGI,[48],> 100 µM
same,TGI,[49],> 100 µM
COc1ccc(N=NC(=O)NC(CC(C)C)C(=O)NC(Cc2ccccc2)C(=O)O)cc1 (stereo not given),TGI,[50],> 100 µM
same,TGI,[51],> 100 µM
same,TGI,[1],> 100 µM
same,TGI,[52],> 100 µM
same,TGI,[2],> 100 µM
same,TGI,[3],> 100 µM
same,TGI,[4],> 100 µM
same,TGI,[5],5.36 µM
same,TGI,[6],> 100 µM
same,TGI,[7],> 100 µM
same,TGI,[8],> 100 µM
same,TGI,[9],> 100 µM
same,TGI,[10],> 100 µM
same,TGI,[57],8.18 µM
same,TGI,[11],> 100 µM
same,TGI,[58],97.5 µM
same,TGI,[12],> 100 µM
same,TGI,[13],> 100 µM
same,TGI,[14],> 100 µM
same,TGI,[16],> 100 µM
same,TGI,[17],46.9 µM
same,TGI,[18],> 100 µM
same,TGI,[19],> 100 µM
same,TGI,[20],> 100 µM
same,TGI,[22],> 100 µM
same,TGI,[23],> 100 µM
same,TGI,[53],> 100 µM
same,TGI,[24],> 100 µM
same,TGI,[25],> 100 µM
same,TGI,[54],> 100 µM
same,TGI,[26],> 100 µM
same,TGI,[27],> 100 µM
same,TGI,[28],> 100 µM
same,TGI,[29],> 100 µM
same,TGI,[30],> 100 µM
same,TGI,[31],> 100 µM
same,TGI,[32],> 100 µM
same,TGI,[33],> 100 µM
same,TGI,[34],> 100 µM
same,TGI,[35],> 100 µM
same,TGI,[36],> 100 µM
same,TGI,[37],3.22 µM
same,TGI,[39],> 100 µM
same,TGI,[55],25.6 µM
same,TGI,[41],> 100 µM
same,TGI,[42],> 100 µM
same,TGI,[43],> 100 µM
same,TGI,[44],> 100 µM
same,TGI,[45],> 100 µM
same,TGI,[46],> 100 µM
same,TGI,[47],> 100 µM
same,TGI,[56],45.2 µM
same,TGI,[48],> 100 µM
same,TGI,[49],> 100 µM

# Reference: PubChem BioAssay (NCI)
